# Positions of bridges follow the written chain, without caps; N, C: chain ends. Non-standard residues stand in square brackets, D forms with d. Residues, ends and D or L forms follow the SMILES beside them.
# System: X4-tropic HIV-1 NL4-3
# Settings: from IC50 against two HIV-1 strains (NL4-3, DTV)
# Source text: These cells contain the β-galactosidase reporter gene under the control of the HIV-1 promoter. Thus, activation of the β-galactosidase reporter gene allows to measure the efficiency of HIV-1 infection and thus to quantitate the potency of HIV-1 inhibitors (Detheux M. et al., 2000; Journal of Experimental Medicine 192, 1501-1508; Münch et al., 2002; Antimicrobial Agents and Chemotherapy 46, 982-990).
# To perform a typical infection assay, P4-CCR5 cells (Charneau et al., 1994; Journal of Molecular Biology 241, 651-662; Charneau et al., Virology. 1994 205, 247-53) were kept in RPMI 1640 medium supplemented with 10 volume % FCS. This cell line coexpresses CD4 and both HIV-1 coreceptors CCR5 and CXCR4 and contains the β-galactosidase gene under the control of the HIV-1 promoter. Virus stocks were generated by the calcium coprecipitation method as described (Detheux et al., J Exp Med. 192:1501-8; 2000), and the p24 antigen levels were quantitated with an HIV p24 ELISA kit obtained through the NIH AIDS Reagent Program. Cells were seeded in flat-bottomed 96-well dishes, cultured overnight, and incubated with the different doses of peptide for 2 h before infection with virus containing 1 ng of p24 antigen in a total volume of […] of medium. After overnight incubation, cells were washed twice and cultivated in fresh culture medium without inhibitory peptide. Three days after infection the cells were lysed, and infectivity was quantitated using the Galacto-Light Plus™ chemiluminescence reporter assay kit (Tropix, Bedford, Mass.) as recommended by the manufacturer. All infections were performed in quintuplicate.
row,SMILES,increase in anti-HIV activity in comparison to VIRIP [fold]
1,CC[C@H](C)[C@H](NC(=O)[C@H](C)NC(=O)[C@H](CCC(=O)O)NC(=O)[C@@H](N)CC(C)C)C(=O)N1CCC[C@H]1C(=O)N[C@H]1CSSC[C@@H](C(=O)N[C@@H](Cc2ccccc2)C(=O)N[C@@H](CC(C)C)C(=O)N[C@@H](Cc2ccccc2)C(=O)NCC(=O)N[C@@H](CCCCN)C(=O)N2CCC[C@H]2C(=O)N[C@@H](Cc2ccccc2)C(=O)N[C@H](C(=O)N[C@@H](Cc2ccccc2)C(=O)O)C(C)C)NC(=O)[C@@H]2CCCN2C(=O)[C@@H]2CCCN2C(=O)[C@H]([C@@H](C)CC)NC(=O)[C@H](CO)NC1=O [VIR-280] (H-LEAIPCSIPPCFLFGKPFVF-OH; disulfide 6-11),161

# Same assay, conditions: read-out: IC50 NL4-3; P4-CCR5 cells, HIV-1 NL4-3, peptide 2 h before infection, readout three days after infection
row,SMILES,IC50 [nM]
1,"CC[C@H](C)[C@H](NC(=O)[C@@H]1CCCN1C(=O)[C@@H](NC(=O)[C@H](C)NC(=O)[C@H](CCC(=O)O)NC(=O)[C@@H](N)CC(C)C)[C@@H](C)CC)C(=O)N[C@@H](CO)C(=O)N[C@H](C(=O)N1CCC[C@H]1C(=O)N1CCC[C@@H]1C(=O)N[C@@H](CCC(=O)O)C(=O)N[C@H](C(=O)N[C@@H](Cc1ccccc1)C(=O)N[C@@H](Cc1ccccc1)C(=O)NCC(=O)N[C@@H](CCCCN)C(=O)N1CCC[C@H]1C(=O)N[C@@H](Cc1ccccc1)C(=O)N[C@H](C(=O)N[C@@H](Cc1ccccc1)C(=O)O)C(C)C)C(C)C)[C@@H](C)CC [VIR-290, LEAIPISIPpEVFFGKPFVF] (H-LEAIPISIP[dP]EVFFGKPFVF-OH)",562
2,"CC[C@H](C)[C@H](NC(=O)[C@@H]1CCCN1C(=O)[C@@H](NC(=O)[C@H](C)NC(=O)[C@H](CCC(=O)O)NC(=O)[C@@H](N)CC(C)C)[C@@H](C)CC)C(=O)N[C@@H](CO)C(=O)N[C@H](C(=O)N1CCC[C@H]1C(=O)N1CCC[C@@H]1C(=O)N[C@@H](CCC(=O)O)C(=O)N[C@H](C(=O)N[C@@H](Cc1c[nH]c2ccccc12)C(=O)N[C@@H](Cc1ccccc1)C(=O)N[C@@H](CC(N)=O)C(=O)N[C@@H](CCCCN)C(=O)N1CCC[C@H]1C(=O)N[C@@H](Cc1ccccc1)C(=O)N[C@H](C(=O)N[C@@H](Cc1ccccc1)C(=O)O)C(C)C)C(C)C)[C@@H](C)CC [VIR-298, LEAIPISIPpEVWFNKPFVF] (H-LEAIPISIP[dP]EVWFNKPFVF-OH)",969
3,"CC[C@H](C)[C@H](NC(=O)[C@H](C)NC(=O)[C@H](CCC(=O)O)NC(=O)[C@@H](N)CC(C)C)C(=O)N1CCC[C@H]1C(=O)N[C@@H](CCSC)C(=O)NCC(=O)N[C@H](C(=O)N1CCC[C@H]1C(=O)N1CCC[C@@H]1C(=O)N[C@@H](CCC(=O)O)C(=O)N[C@H](C(=O)N[C@@H](Cc1ccccc1)C(=O)N[C@@H](Cc1ccccc1)C(=O)NCC(=O)N[C@@H](CCCCN)C(=O)N1CCC[C@H]1C(=O)N[C@@H](Cc1ccccc1)C(=O)N[C@H](C(=O)N[C@@H](Cc1ccccc1)C(=O)O)C(C)C)C(C)C)[C@@H](C)CC [VIR-320, LEAIPMGIPpEVFFGKPFVF] (H-LEAIPMGIP[dP]EVFFGKPFVF-OH)",277
4,"CC[C@H](C)[C@H](NC(=O)[C@H](C)NC(=O)[C@H](CCC(=O)O)NC(=O)[C@@H](N)CC(C)C)C(=O)N1CCC[C@H]1C(=O)N[C@@H](CCSC)C(=O)NCC(=O)N[C@H](C(=O)N1CCC[C@H]1C(=O)N1CCC[C@@H]1C(=O)N[C@@H](CCC(=O)O)C(=O)N[C@H](C(=O)N[C@@H](Cc1ccccc1)C(=O)N[C@@H](Cc1ccccc1)C(=O)N[C@@H](CC(N)=O)C(=O)N[C@@H](CCCCN)C(=O)N1CCC[C@H]1C(=O)N[C@@H](Cc1ccccc1)C(=O)N[C@H](C(=O)N[C@@H](Cc1ccccc1)C(=O)O)C(C)C)C(C)C)[C@@H](C)CC [VIR-322, LEAIPMGIPpEVFFNKPFVF] (H-LEAIPMGIP[dP]EVFFNKPFVF-OH)",836
5,"CC[C@H](C)[C@H](NC(=O)[C@H](C)NC(=O)[C@H](CCC(=O)O)NC(=O)[C@@H](N)CC(C)C)C(=O)N1CCC[C@H]1C(=O)N[C@@H](CCSC)C(=O)NCC(=O)N[C@H](C(=O)N1CCC[C@H]1C(=O)N1CCC[C@@H]1C(=O)N[C@@H](CCC(=O)O)C(=O)N[C@@H](Cc1ccccc1)C(=O)N[C@@H](CC(C)C)C(=O)N[C@@H](Cc1ccccc1)C(=O)N[C@@H](CC(N)=O)C(=O)N[C@@H](CCCCN)C(=O)N1CCC[C@H]1C(=O)N[C@@H](Cc1ccccc1)C(=O)N[C@H](C(=O)N[C@@H](Cc1ccccc1)C(=O)O)C(C)C)[C@@H](C)CC [VIR-323, LEAIPMGIPpEFLFNKPFVF] (H-LEAIPMGIP[dP]EFLFNKPFVF-OH)",924
6,"CC[C@H](C)[C@H](NC(=O)[C@H](CC(=O)O)NC(=O)[C@H](CCC(=O)O)NC(=O)[C@@H](N)CC(C)C)C(=O)N1CCC[C@H]1C(=O)N[C@@H](CCSC)C(=O)NCC(=O)N[C@H](C(=O)N1CCC[C@H]1C(=O)N1CCC[C@@H]1C(=O)N[C@@H](CCC(=O)O)C(=O)N[C@H](C(=O)N[C@@H](C)C(=O)N[C@@H](Cc1ccccc1)C(=O)N[C@@H](CC(N)=O)C(=O)N[C@@H](CCCCN)C(=O)N1CCC[C@H]1C(=O)N[C@@H](Cc1ccccc1)C(=O)N[C@H](C(=O)N[C@@H](Cc1ccccc1)C(=O)O)C(C)C)C(C)C)[C@@H](C)CC [VIR-326, LEDIPMGIPpEVAFNKPFVF] (H-LEDIPMGIP[dP]EVAFNKPFVF-OH)",963
7,"CC[C@H](C)[C@H](NC(=O)[C@H](C)NC(=O)[C@H](CCC(=O)O)NC(=O)[C@@H](N)CC(C)C)C(=O)N1CCC[C@H]1C(=O)N[C@@H](CCSC)C(=O)NCC(=O)N[C@H](C(=O)N1CCC[C@H]1C(=O)N1CCC[C@@H]1C(=O)N[C@@H](CCC(=O)O)C(=O)N[C@H](C(=O)N[C@@H](Cc1c[nH]c2ccccc12)C(=O)N[C@@H](Cc1ccccc1)C(=O)N[C@@H](CC(N)=O)C(=O)N[C@@H](CCCCN)C(=O)N1CCC[C@H]1C(=O)N[C@@H](Cc1ccccc1)C(=O)N[C@H](C(=O)N[C@@H](Cc1ccccc1)C(=O)O)C(C)C)C(C)C)[C@@H](C)CC [VIR-328, LEAIPMGIPpEVWFNKPFVF] (H-LEAIPMGIP[dP]EVWFNKPFVF-OH)",685
8,CC[C@H](C)[C@H](NC(=O)[C@H](C)NC(=O)[C@H](CCC(=O)O)NC(=O)[C@@H](N)CC(C)C)C(=O)N1CCC[C@H]1C(=O)N[C@H]1CSSC[C@@H](C(=O)N[C@@H](CC(C)C)C(=O)N[C@@H](C)C(=O)N[C@@H](Cc2ccccc2)C(=O)N[C@@H](C)C(=O)N[C@@H](CCCCN)C(=O)N2CCC[C@H]2C(=O)N[C@@H](Cc2ccccc2)C(=O)N[C@H](C(=O)N[C@@H](Cc2ccccc2)C(=O)O)C(C)C)NC(=O)[C@@H]2CCCN2C(=O)[C@@H]2CCCN2C(=O)[C@H]([C@@H](C)CC)NC(=O)[C@H](CO)NC1=O [VIR-346] (H-LEAIPCSIPPCLAFAKPFVF-OH; disulfide 6-11),541
9,"CC[C@H](C)[C@H](NC(=O)[C@H](C)NC(=O)[C@H](CCC(=O)O)NC(=O)[C@@H](N)CC(C)C)C(=O)N1CCC[C@H]1C(=O)N[C@@H](CS)C(=O)N[C@@H](CO)C(=O)N[C@H](C(=O)N1CCC[C@H]1C(=O)N1CCC[C@@H]1C(=O)N[C@@H](CS)C(=O)N[C@H](C(=O)N[C@@H](Cc1ccccc1)C(=O)N[C@@H](Cc1ccccc1)C(=O)NCC(=O)N[C@@H](CCCCN)C(=O)N1CCC[C@H]1C(=O)N[C@@H](Cc1ccccc1)C(=O)N[C@H](C(=O)N[C@@H](Cc1ccccc1)C(=O)O)C(C)C)C(C)C)[C@@H](C)CC [VIR-350, LEAIPCSIPpCVFFGKPFVF] (H-LEAIPCSIP[dP]CVFFGKPFVF-OH)",198
10,"CC[C@H](C)[C@H](NC(=O)[C@H](C)NC(=O)[C@H](CCC(=O)O)NC(=O)[C@@H](N)CC(C)C)C(=O)N1CCC[C@H]1C(=O)N[C@H]1CSSC[C@@H](C(=O)N[C@H](C(=O)N[C@@H](C)C(=O)N[C@@H](Cc2ccccc2)C(=O)N[C@@H](CC(N)=O)C(=O)N[C@@H](CCCCN)C(=O)N2CCC[C@H]2C(=O)N[C@@H](Cc2ccccc2)C(=O)N[C@H](C(=O)N[C@@H](Cc2ccccc2)C(=O)O)C(C)C)C(C)C)NC(=O)[C@H]2CCCN2C(=O)[C@@H]2CCCN2C(=O)[C@H]([C@@H](C)CC)NC(=O)CNC1=O [VIR-355, LEAIPCGIPpCVAFNKPFVF] (H-LEAIPCGIP[dP]CVAFNKPFVF-OH; disulfide 6-11)",582
11,CC[C@H](C)[C@H](NC(=O)[C@H](C)NC(=O)[C@H](CCC(=O)O)NC(=O)[C@@H](N)CC(C)C)C(=O)N1CCC[C@H]1C(=O)N[C@H]1CSSC[C@@H](C(=O)N[C@@H](Cc2ccccc2)C(=O)N[C@@H](C)C(=O)N[C@@H](Cc2ccccc2)C(=O)N[C@@H](CC(N)=O)C(=O)N[C@@H](CCCCN)C(=O)N[C@@H](CC(=O)O)C(=O)N[C@@H](Cc2ccccc2)C(=O)N[C@H](C(=O)N[C@@H](Cc2ccccc2)C(=O)O)C(C)C)NC(=O)[C@@H]2CCCN2C(=O)[C@@H]2CCCN2C(=O)[C@H]([C@@H](C)CC)NC(=O)[C@H](CO)NC1=O [VIR-356] (H-LEAIPCSIPPCFAFNKDFVF-OH; disulfide 6-11),700
12,"CC[C@H](C)[C@H](NC(=O)[C@H](C)NC(=O)[C@H](CCC(=O)O)NC(=O)[C@@H](N)CC(C)C)C(=O)N1CCC[C@H]1C(=O)N[C@@H](CCSC)C(=O)N[C@@H](CO)C(=O)N[C@H](C(=O)N1CCC[C@H]1C(=O)N1CCC[C@@H]1C(=O)N[C@@H](CCC(=O)O)C(=O)N[C@@H](Cc1ccccc1)C(=O)N[C@@H](CC(C)C)C(=O)N[C@@H](Cc1ccccc1)C(=O)NCC(=O)N[C@@H](CCCCN)C(=O)N1CCC[C@H]1C(=O)N[C@@H](C)C(=O)N[C@@H](Cc1ccccc1)C(=O)N[C@H](C(=O)N[C@@H](Cc1ccccc1)C(=O)O)C(C)C)[C@@H](C)CC [VIR-376, LEAIPMSIPpEFLFGKPAFVF] (H-LEAIPMSIP[dP]EFLFGKPAFVF-OH)",568

# From patent US7655629B2, “Peptides and their use for the treatment of HIV infections” (priority 2002, dated 2010)
